Test results published in patent US9162975B2, “Phenyl carbamate compounds for use in alleviating or treating pain” (Bio-Pharm Solutions Co., Ltd., priority 2011, dated 2015).

What was measured:
[1] = test system: ICR mice; test: Hot-plate test; assay type: in vivo; conditions: withdrawal latency relative to vehicle control, 150 mg/kg po, hot plate 55±1° C.
Protocol: To examine the pain relief effect of the phenyl carbamate compounds, a hot-plate test was conducted in general pain animal model referring to Current Protocols in Neuroscience; Behavioral Neuroscience Unit 8.9.
(§1) ICR mice (male, 30-35 g; Orient Bio, Korea) were habituated before test in test room for 1 hour Animals were fasted 2 hr before administration of compounds. Each of Compound 1, 2, 3, 4, 5, 63, 65, and 67 was orally administered at the dose of 150 mg/kg, 10 ul/g, bw (n=7˜10/group). All compounds were dissolved in a vehicle of 30% (v/v) PEG 400 or 20% (v/v) Tween 80. The control group was treated the vehicle without compounds.
0.5 hr after the administration of compounds, the mice were put on a hot plate pre-heated to 55±1° C. (Hu, X. et al, 2008), and then, measured as the withdrawal latency (cut-off time: 30 sec) time until the point when each mouse was taking off a paw from the plate, shaking, licking a paw or hind leg, or jumping from the plate.

[2] = test system: CFA-induced pain model in rats; test: Antiallodynic activity on Complete Freund's Adjuvant (CFA)-induced inflammatory pain model, von Frey; assay type: in vivo, Sprague-Dawley rats; conditions: 0.5 hr, paw withdrawal threshold relative to sham
Protocol: (§2) Male, Sprague-Dawley rats (200-220 g, Nara Bio, Korea) were habituated for 1 week before surgery and allowed free access to food and water throughout the experimentation. Room temperature and humidity were maintained at 24±2° C. and 50±10%, respectively.
CFA-induced inflammatory pain was induced by the procedure of Nagakura et al. (2003) and Gregory P. et al. (2010) with minor modifications. CFA (sigma, USA) was injected in the right plantar with a 100 ul volume under gaseous anesthesia with isoflurane a 4:4 flow ratio of NO2. Sham controls were injected with 100 ul of saline and vehicle controls were identical to CFA infusion model, except for administration of vehicles.
(§3) Tactile sensitivity (Mechanical allodynia) was evaluated using von Frey monofilaments before and after treatment, and animals were used withdrawal threshold value was less than 4 g. One week after surgery, CFA-infused animals (n=4˜6), sham-operated animals (n=12), and vehicle-operated animals (n=17) were tested for tactile sensitivity with von Frey monofilaments 3 trials in each animal. All Animals were placed in a stainless steel mashed chamber and habituated for 30 min in the test box. The tactile sensitivity for ipsilateral hind paw was measured using the up-and-down method (Dixon, 1980) with seven von Frey monofilaments (0.4, 1, 2, 4, 6, 8, and 15 g) to 3 trials. […] The 50% paw withdrawal threshold for each paw was calculated using the following formula: [Xth] log=[vFr] log+ky where [vFr] is the force of the last von Frey used, k=0.2249 which is the average interval (in log units) between the von Frey monofilaments, and y is a value that depends upon the pattern of withdrawal responses (Dixon, 1980).
Antiallodynic effect of compound of Example 1 was evaluated at the dose of 10, 30 and 60 mg/kg (n=4˜6), intraperitoneally administrated in a volume of 5 ul/g bw in a vehicle of 30% (v/v) PEG. […]
The relative values compared to the sham (% control) were calculated and shown in Table 7 and FIG. 7, which show an antiallodynic effect of Compound 1 on CFA-induced pain model in rats.

[3] = test system: ICR mice; test: Writhing test (acetic acid); assay type: in vivo; conditions: Mus musculus, po, 1 h
Protocol: To examine the pain relief effect of the phenyl carbamate compounds, a writhing test was conducted in general pain animal model referring to Fischer, L. G. et al. (2008).
as §1, with “24-28” for “30-35”, “hr,” for “hr”, “20” for “150”, “(n=3˜5/group).” for “(n=7˜10/group).”
One hour after the administration of Compounds, 0.6% acetic acid at the dose of 10 ul/g, bw was injected into the mice. Animals were habituated in the cage for 5 min 5 min after habituation, the number of writhes (abdominal constriction) for 15 min was counted referring to Korzeniewska-Rybicka, I. et al. (1998) and compared with that of a control.

[4] = test system: STZ-induced pain model in rats; test: Antiallodynic activity on streptozotocin (STZ)-induced diabetic pain model, von Frey; assay type: in vivo, Sprague-Dawley rats; conditions: 0.5 hr, paw withdrawal threshold relative to sham
Protocol: as §2
STZ-induced diabetic pain model was established with a modified method of Rakieten et al. (1963) and Bertrand Aubel et al. (2004). All animals were fasted 4 to 6 hr prior to STZ injection. STZ (sigma, USA) was dissolved in 20 mM sodium citrate buffer, pH 5.5 (sigma, USA) and intraperitoneally injected at 75 mg/kg, 4 ul/g, bw into the rats Sham controls were injected with same volume of 20 mM sodium citrate buffer, pH 5.5 and vehicle controls were identical to STZ model, except for administration of vehicles. Rats were supplied with 10% sucrose water for 2 days against sudden hypoglycemia. 3 days later, the induction of diabetes was checked by measurement of tail vein blood glucose levels with a blood glucose meter. (LifeScan OneTouch Ultra, USA). If blood glucose was not >300 mg/dl by 72 hr, the rat was excluded from the diabetic group.
as §3, with “treatment of compound example 1” for “treatment,”, “One week after surgery, CFA-infused animals (n=4˜6), sham-operated animals (n=12), and vehicle-operated animals (n=17) were tested for tactile sensitivity with von Frey monofilaments 3 trials in each animal. All Animals were placed in a stainless steel mashed chamber and habituated for 30 min in the test box.” left out
Antiallodynic effect of compound of Example 1 was evaluated at the dose of 10, 30 and 60 mg/kg (n=6), intraperitoneally administrated in a volume of 5 ul/g, bw in a vehicle of 30% (v/v) PEG. […]

[5] = dose 10 mg/kg intraperitoneally
[6] = dose 30 mg/kg intraperitoneally
[7] = dose 60 mg/kg intraperitoneally

**Q.** How did the “Hot-plate test (150 mg/kg, 0.5 h, po) % Control” value [1] turn out when `C[C@H](OC(N)=O)[C@@H](O)c1ccccc1Cl` [Example 1, 1-(2-chlorophenyl)-(S)-1-hydroxypropyl-(S)-2-carbamate] was run?
**A.** The value was 135.7%.

**Q.** And the “% Control (CFA-induced pain model)” value [2, 5]?
**A.** The value was 12.5%.

**Q.** And the “% Control (CFA-induced pain model)” value [2, 6]?
**A.** Its value is 40.0%.

**Q.** What about the “% Control (CFA-induced pain model)” value [2, 7] of the same compound?
**A.** The value was 73.7%.

**Q.** What about the ED50 [3] of the same compound?
**A.** The ED50 was 14.1 mg/kg.

**Q.** What about the “% Control (STZ-induced pain model)” value [4, 5] of the same compound?
**A.** The value was 33.9%.

**Q.** What about the “% Control (STZ-induced pain model)” value [4, 6] of the same compound?
**A.** The value was 49.9%.

**Q.** And the “% Control (STZ-induced pain model)” value [4, 7]?
**A.** The value was 73.7%.
